Assay results taken from patent US7037502B2, “Peptide with the amino acid sequence of KVLDGQDP having anti-inflammatory properties” (priority 2001, dated 2006).
Entries after “also recorded” stand apart in the source; their conditions may differ. Marks after values point to notes of the source that are not given here.

Columns and labels:
[1] = system: eosinophil infiltration of conjunctiva; assay: Allergic conjunctivitis to ragweed in guinea pig: histology, eosinophil count in conjunctiva; type: in vivo, Hartley female guinea pig; conditions: for Anti-inflammatory activity, overall conclusion in words: allergic conjunctivitis model in guinea pig, summary of Example 2; for Statistical evaluation of eosinophil count (Mann-Whitney test), P compared to Dexamethasone / Statistical evaluation of eosinophil count (Mann-Whitney test), P compared to Livostine / Statistical evaluation of eosinophil count (Mann-Whitney test), P compared to No treatment group: eosinophils in three fields of conjunctiva (×400), 12 eyes per group, eye drops
Experimental: The peptides of the present invention were analyzed in experimental model of allergic conjunctivitis to ragweed (giant ragweed; Ambrosia trifida) in guinea pig. Hartley strain of guinea pig was selected according to previous reports of conjunctival anaphylaxis (Calonge M., et al., Acta Ophthalmol 68; 470–476, 1990) and females were chosen based on the sex dimorphism of ocular mucosal immunity with the protective role of male hormones (Saruya S., et al., Act Soc Ophthalmol Jap 72; 833–845, 1968). The conjunctival redness and edema are main signs of seasonal allergic conjunctivitis and eosionphil infiltration is the hallmark of the conjunctival histology in patients with allergic conjunctivitis (Abelson M B., et al., Arch Ophthalmol. 101; 555–556, 1983; Butrus S I., et al., Int. Ophthalmol. Clin. 28; 324–328, 1988)
86 Hartley female guinea pigs, 200–250 g were housed in the animal facilities of the Asan Institute for Life Sciences (Korea), given guinea pig chow and water ad libitum, and cared for in accordance with the Declaration of Helsinki and the National Institute of Health Guide to the Care and Use of the Laboratory Animals (Korea).
On day 15, immunized guinea pigs were divided 14 groups, 6 for each group. 11 anti-inflammatory peptides including new recombinants, dexamethasone eye drop (Maxidex, 0.1% dexamethasone, Alcon) and anti-histamine eye drop (Livostin, levocabastine, Janssen) were used for 13 groups, and no treatment for one group. Normal controls were employed as 6 non-immunized and non-treated guinea pigs. […] All the procedures were followed experimental model of allergic conjunctivitis described by Merayo-Lloves et al (Experimental model of allergic conjunctivitis to ragweed in guinea pig. Curr. Eye Res. 14; 487–494, 1995).
Anti-inflammatory peptides were resolved in sterile saline (100 μmol/40 μl concentration). All peptides and dexamethasone eye solutions were challenged 3 hour prior to the last pollen application on day 15, 10 minutes after pollen application, and 4 times thereafter at the 3 hour interval.
The orbits were excentrated after the animals were killed with CO2 asphyxia, and specimens were prepared for light microscopic examination. Sectioned specimens were stained with hematoxylin-eosin.
Eosinophils in the standardized fields of conjunctival epithelium, the immediate subepithelial, and the stroma were counted in three non-consecutive fields (magnification ×400) for each treatment in each experiment (12 eyes in each group).

[2] = biological target: T1, PLA2 (Bovine pancreas, EC 3.1.1.4) (Bos taurus, UniProt P00593); assay: Inhibitory effect of synthetic peptides on PLA2 in vitro ([14C]-arachidonic acid release); type: biochemical; conditions: peptides 1×10^−8 M, preincubated 15 min at 37° C.; compared with the peptides known as PLA2 inhibitors
T1 construct: 0.18 Unit PLA2 (Bovine pancreas, EC 3.1.1.4, Sigma); purchased Sigma; host or cells: bovine pancreas
Excerpt: It has been examined whether synthetic peptides contain inhibitory effect on PLA2 activity. A established PLA2 assay method was used to determine the enzymatic activity by measuring the release [^14C]-arachidonic acid from 1-acyl-2-[1-^14C]arachidonic acid-glycerophospho-ethanolamine (Biochem. Pharmacol. 54, 259–268, 1997). To determine the inhibitory activity, 0.18 Unit PLA2 (Bovine pancreas, EC 3.1.1.4, Sigma; 1.0 unit will hydrolyze […] of L-phosphatidylcholine to L-lysophosphatidylcholine and a fatty acid per min. at pH 8.0 at 37° C.) was preincubated for 15 minutes with the synthetic peptides (1×10^−8 M) at 37° C. in […] before adding 1-acyl-2-[1-^14C]arachidonic acid-glycerophospho-ethanolamine. The control was also PLA2 preincubated with buffer. After pre-incubation, PLA2 activity was assayed using sonicated liposomes, prepared as established method (Biochem. Biophys. Acta. 1083, 80–88, 1991). […] of 1-acyl-2-[1-^14C]arachidonic acid-glycerophospho-ethanolamine (about 2×10^5 dpm) was added in pre-incubated mixture, and incubated for 1 hr at 37° C. […]
For inhibitory test of the peptides given, each value is the mean of data from three separate experiments (S.D.<10%). The value of PLA2 activity incubated without peptides was determined as 100% PLA2 activity that is 5.57 pmole arachidonyl/hr. % Inhibition was shown in FIG. 1.

T1 sequence (P00593 23-145): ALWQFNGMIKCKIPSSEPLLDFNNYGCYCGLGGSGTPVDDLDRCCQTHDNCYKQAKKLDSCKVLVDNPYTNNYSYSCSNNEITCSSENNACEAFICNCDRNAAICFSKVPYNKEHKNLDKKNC

Sequence	Anti-inflammatory activity, overall conclusion in words ([1]; listed as SEQ ID NO:2)	Statistical evaluation of eosinophil count (Mann-Whitney test), P compared to Dexamethasone [1]	Statistical evaluation of eosinophil count (Mann-Whitney test), P compared to Livostine [1]	Statistical evaluation of eosinophil count (Mann-Whitney test), P compared to No treatment group [1]	Histological signs (eosinophil infiltration), result in words ([1]; n=12, P<0.01, SD<10%, Mann-Whitney test, listed as SEQ ID NO:2)	PLA2 activity (FIG. 1), result in words [2]	Anti-inflammatory activity, overall conclusion in words [1]
KVLDGQDP [Peptide R2, synthetic peptide of the invention]	excellent anti-inflammatory activity in comparison with other known peptide sequences; also recorded: much higher activity than the steroidal anti-inflammatory dexamethasone	0.001*	0.002*	0.000	statistically significant difference from other groups; also recorded: the most effective	significantly reduced	–
KVLDPVKG [Peptide R1, synthetic peptide of the invention]	–	0.001	0.002	0.002	–	significantly reduced	excellent anti-inflammatory activity in comparison with other known peptide sequences
